Test results reported in patent US9272980B2, “Anticancer agent” (KTN BioTec, Inc., priority 2014, dated 2016).

How the values were obtained:
[1] = test system: human malignant pleural mesothelioma cell lines (NCI-H28, NCI-H2052, NCI-H2452 and MSTO-211H cells); test: MTT cell viability assay, malignant mesothelioma cell lines; format: cell-based; conditions: 24 hr
From the text: Cancer cells (NCI-H28, NCI-H2052, NCI-H2452 and MSTO-211H) treated or not treated with a given concentration of each test compound for 24 hr were subjected to MTT assay. […] As a control, MTT intensity of the cells not treated with any of naftopidil and the aryloxy derivative of the present invention was used.
NCI-H28, NCI-H2052, NCI-H2452 and MSTO-211H cells were used as human malignant pleural mesothelioma cell lines. These cells were purchased from American Type Culture Collection (Manassas, Va., USA). The cells were cultured in RPMI (Roswell Park Memorial Institute)-1640 medium added with 0.003% (W/V) L-glutamine.
(§1) In all cultures, the medium was supplied with 10% (v/v) heat inactivated bovine serum, penicillin (final concentration 100 U/ml) and streptomycin (final concentration 0.1 mg/ml), and culture was performed at 37° C. under humidification atmosphere of 5% CO2 and 95% air.
(§2) The cell viability was measured by a method using MTT (3-(4,5-dimethyl-2-thiazolyl)-2,5-diphenyl-2H-tetrazolium bromide) in the same manner as in a published report (Cell Physiol Biochem 2012; 30: 61-74).

[2] = test system: human lung cancer cell lines (A549, SBC-3, and Lu-65 cells); test: MTT cell viability assay, lung cancer cell lines; format: cell-based; conditions: A549, SBC-3, Lu-65 cells, 1-100 μM, 24 hr
From the text: (§3) The following cell lines treated or not treated with a given concentration of HUHS1015 for 24 hr were subjected to MTT assay. (A) lung cancer cell line (B) liver cancer cell line (C) gastric cancer cell line (D) bladder cancer cell line (E) prostate cancer cell line (F) kidney cancer cell line. […] As a control, MTT intensity of the cells not treated with HUHS1015 was used.
A549, SBC-3 and Lu-65 cells were used as human lung cancer cell lines. These cells were purchased from Health Science Research Resources Bank (Osaka, Japan). A549 cells and SBC-3 cells were cultured in MEM (minimum essential medium) added with 0.1 mM non-essential amino acid, and Lu-65 cells were cultured in RPMI-1640 medium.
as §1, §2

[3] = test system: human liver cancer cell lines (HepG2 and HuH-7 cells); test: MTT cell viability assay, liver cancer cell lines; format: cell-based; conditions: HepG2, HuH-7 cells, 1-100 μM, 24 hr
From the text: as §3
HepG2 cells and HuH-7 cells were used as human […] cancer cell lines. These cells were obtained from RIKEN cell bank (Ibaraki, Japan) and cultured in DMEM (Dulbecco's Modified Eagles Medium).
as §1, §2

[4] = test system: human gastric cancer cell lines (MKN-28 and MKN-45 cells); test: MTT cell viability assay, gastric cancer cell lines; format: cell-based; conditions: MKN-28, MKN-45 cells, 1-100 μM, 24 hr
From the text: as §3
MKN-28 cells and MKN-45 cells were used as human gastric cancer cell lines. These cells were obtained from Dr. Tatematsu (Nagoya University, Japan) and cultured in RPMI-1640 medium.
as §1, §2

[5] = test system: human bladder cancer cell lines (253J, 5637, KK-47, TCCSUP, T24, and UM-UC-3 cells); test: MTT cell viability assay, bladder cancer cell lines; format: cell-based; conditions: T24, UM-UC-3 cells, 1-100 μM, 24 hr
From the text: as §3
253J cells, 5637 cells, KK-47 cells, TCCSUP cells, T24 cells and UM-UC-3 cells were used as human bladder cancer cell lines.
KK-47 cells were provided by Dr. Naito (Department of Urology, Kyushu University, Fukuoka, Japan). 253J cells, 5637 cells, TCCSUP cells, T24 cells and UM-UC-3 cells were purchased from American Type Culture Collection (Manassas, Va., USA). All cells were cultured in RPMI-1640 medium.
as §1, §2

[6] = test system: human prostate cancer cell lines (DU145, LNCap, and PC-3 cells); test: MTT cell viability assay, prostate cancer cell lines; format: cell-based; conditions: 1-100 μM, 24 hr
From the text: as §3
DU145 cells, LNCap cells and PC-3 cells were used as human prostate cancer cell lines. These cells were purchased from American Type Culture Collection. The DU145 cells were cultured in DMEM. The LNCaP and PC-3 cells were cultured in RPMI-1640 medium.
as §1, §2

[7] = test system: human kidney cancer cell lines (ACHN, RCC4-VHL, and 786-O cells); test: MTT cell viability assay, kidney cancer cell lines; format: cell-based; conditions: 1-100 μM, 24 hr
From the text: as §3
ACHN cells, RCC4-VHL cells and 786-O cells were used as human kidney cancer cell lines. These cells were purchased from European Collection of Animal Cell Cultures (ECACC; Salisbury, UK), and cultured in DMEM.
as §1, §2

[8] = test system: MKN45 gastric cancer cells; test: Growth of subcutaneously inoculated MKN45 gastric cancer cells in nude mouse; format: in vivo; conditions: nude BALB/c-nu/nu mouse, MKN45 subcutaneous, 0.23 mg/mouse 25 μM intraperitoneal twice per week, day 33
Method: MKN45 gastric cancer cells were subcutaneously inoculated into the flank of mouse, and 1 week later (day 0), 25 μM of HUHS1015 and 25 μM of naftopidil were intraperitoneally administered (twice/1 week). As a control, a mouse administered with saline was used. The time-course changes (A) of the tumor volume (mean±SEM, n=7) and the results (B) of tumor weight (mean±SEM, n=7) after the lapse of 33 days are shown. P value, Dunnett's test. NS, not significant
Nude BALB/c-nu/nu mouse (male, 6 week-old) was purchased from Japan SLC, Inc. (Shizuoka, Japan). MKN45 cells (1×10^7 cells) were suspended in a culture medium (200 μl) containing Matrigel (BD Biosciences, San Jose, Calif., USA) and subcutaneously inoculated to the flank of the mouse under general anesthesia with pentobarbital. HUHS1015 (0.23 mg/mouse 25 μM) or naftopidil (0.25 mg/mouse 25 μM) was diluted with saline. At 1 week (Day 0) after inoculation, intraperitoneal administration of saline, HUHS1015 or naftopidil twice per week was started. The longitudinal length (L) and transverse length (S) of the inoculated tumor were measured with calipers, and the tumor volume (V) was calculated from the following formula: V=L×S^2×1/2 The mouse was sacrificed on day 33, the tumor was isolated and the weight thereof was measured.

[9] = malignant mesothelioma cell lines, 1-100 μM

CCCCCCCCN1CCN(CC(O)COc2cccc3ccccc23)CC1 (stereo not shown) [HUHS1019, 3-(1-naphthyloxy)-1-(4-octylpiperazinyl)propan-2-ol]
activity in reducing cell viability (MTT) [1, 9]: high activity

COc1ccccc1N1CCN(CC(O)COc2cccc3ccccc23)CC1 (racemic) [naftopidil, (±)-1-[4-(2-methoxyphenyl)piperazinyl]-3-(1-naphthyloxy)propan-2-ol, reference compound]
cell viability (MTT) ([1]; all examined malignant mesothelioma cell lines, 1-100 μM): reduced the cell viability in a concentration dependent manner | cell viability (MTT) ([1]; malignant mesothelioma cell lines, concentration of 100 µM, % control): ~0%

CCCCCCCN1CCN(CC(O)COc2cccc3ccccc23)CC1 (stereo not shown) [HUHS1018, 1-(4-heptylpiperazinyl)-3-(1-naphthyloxyl)propan-2-ol]
activity in reducing cell viability (MTT) [1, 9]: high activity

COc1cccc(N2CCN(CC(O)COc3cccc4ccccc34)CC2)c1 (stereo not shown) [HUHS1002, 1-(4-(3-methoxyphenyl)piperazinyl)-3-(1-naphthyloxyl)propan-2-ol, reference compound]
activity in reducing cell viability (MTT) [1, 9]: high activity

OC(COc1cccc2ccccc12)CN1CCN(c2ccccc2)CC1 (stereo not shown) [HUHS1004, 3-(1-naphthyloxy)-1-(4-phenylpiperazinyl)propan-2-ol]
activity in reducing cell viability (MTT) [1, 9]: high activity

COc1ccccc1C1CCN(CC(O)COc2cccc3ccccc23)CC1 (stereo not shown) [HUHS1017, 1-(4-(2-methoxyphenyl)piperidin-1-yl)-3-(1-naphthyloxyl)propan-2-ol]
activity in reducing cell viability (MTT) [1, 9]: high activity

OC(COc1cccc2ccccc12)CN1CCN(c2ccccc2Cl)CC1 (stereo not shown) [HUHS1014, 1-(4-(2-chlorophenyl)piperazinyl)-3-(1-naphthyloxy)-propan-2-ol]
activity in reducing cell viability (MTT) [1, 9]: high activity

COc1ccccc1NCCNCC(O)COc1cccc2ccccc12 (stereo not shown) [HUHS1015, 1-((2-((2-methoxyphenyl)amino)ethyl)amino)-3-(1-naphthyloxy)propan-2-ol]
activity in reducing cell viability (MTT) [1, 9]: high activity | cell viability (MTT) [2]: reduced the cell viability in a concentration dependent manner | cell viability (MTT) [3]: reduced the cell viability in a concentration dependent manner | cell viability (MTT) [4]: reduced the cell viability in a concentration dependent manner | cell viability (MTT) [5]: reduced the cell viability in a concentration dependent manner | cell viability (MTT) [6]: reduced the cell viability in a concentration dependent manner | cell viability (MTT) [7]: reduced the cell viability in a concentration dependent manner | antitumor effect on gastric cancer (tumor volume, tumor weight) [8]: superior to naftopidil
